Experimental data from patent US20100255117A1, “METHODS AND COMPOSITIONS FOR THE TREATMENT OF CANCER” (The Johns Hopkins University, priority 2007, published 2010).

Experiments:
A549-C8-luc cells = test: Orthotopic A549-C8-luc lung tumor model, inhaled siRNA with or without carboplatin; assay type: in vivo, SCID-Beige mice; details: carboplatin 30 mg/kg i.p. twice/week, 4 weeks
Method: Experimental Lung Metastasis: In experimental metastasis experiments, 2×10^6 A549-C8-luc cells were injected into SCID-Beige mice (Charles River, Mass.) intravenously. For delivery of siRNA into lung tumors, 100 μg of siRNA duplex diluted in PBS was aerosolized using a nebulizer. Mice were given three doses of siRNA (100 μg/dose) every week, for 4 weeks, using a nebulizer. Intraperitoneal injections of carboplatin were given at a dose of 30 mg/kg body weight twice/week. All experimental animal protocols were performed in accordance with guidelines approved by the animal care committee at the Johns Hopkins University Bloomberg School of Public Health.
In Vivo Imaging: For luminescent imaging, animals inoculated with A549-C8-luc cells, which express a luciferase reporter gene, were anesthetized and injected intraperitoneally with 250 ul of luminescent substrate (15 mg/ml stock) D-Luciferin Firefly (Xenogen Cat# XR-1001). The animals were then imaged and analyzed by using the Xenogen IVIS Optical Imaging Device in the Johns Hopkins Oncology Center.

A549 cells [1] = test: A549 subcutaneous tumor xenograft, intratumoral siRNA with or without carboplatin/radiation; assay type: in vivo, athymic nude mice
Method: Tumor Xenografts and siRNA Treatment: We injected A549 cells (5×10^6) and H460 cells (2×10^6) subcutaneously into the hind leg of male athymic nude mice and measured the tumor dimensions by caliper once per week. The tumor volumes were calculated using the following formula: [length (mm)×width (mm)×width (mm)×0.52]. For in vivo delivery of siRNA into tumors, siRNA duplexes diluted in PBS were injected into the tumors using insulin syringes at a concentration of 10 μg of siRNA/50 mm^3 of tumor volume. Intraperitoneal injections of carboplatin were given at a dose of 40 mg/kg body weight. Both siRNA and carboplatin were administered twice weekly for 4 weeks. Upon termination, tumors were harvested and weighted. For radiation exposure, mice with subcutaneous tumors were exposed to high dose rate radiation (2 dose of 3Gy each) using a Gamma cell 40 ^137Cs irradiator (Atomic Energy of Canada, Ltd).
Statistical Analysis—Statistical comparisons were performed by Student's t-tests or Wilcoxon rank-sum test. A value of p<0.05 was considered statistically significant. Tumor weights and changes in tumor volume were summarized using descriptive statistics. Differences in tumor measures between treatment groups were examined using linear regression models with generalized estimating equations (GEE). The distributions of both tumor measurements were skewed, so log transformations were used.

ROS = test: Measurement of ROS levels (c-H2DCFDA, flow cytometry); assay type: cell-based, human; details: NAC for 30 mins
Method: Measurement of ROS levels: Cells were incubated with 10 μM c-H2DCFDA (molecular probes, Invitrogen, CA) for 30 mins at 37° C. to assess the ROS mediated oxidation to the fluorescent compound c-H2DCF. Fluorescence of oxidized c-H2DCF was measured at an excitation wavelength of 480 nm and an emission wavelength of 525 nm using a FAC Scan flow cytometer (Becton Dickinson).

A549 cells [2] = test: Clonogenic survival after ionizing radiation, A549; assay type: cell-based, human; details: A549-NRF2 shRNA cells
Method: (§1) Clonogenic assays: Exponentially growing cells were counted, diluted and seeded in triplicate at 1000 cells per culture dish (100 mm). Cells were incubated for 24 h in a humidified CO2 incubator at 37° C., exposed to high dose rate (0.68Gy/min) radiation using a Gamma cell 40 ^137Cs irradiator (Atomic Energy of Canada, Ltd). To assess clonogenic survival following radiation exposure, cell cultures were incubated in complete growth medium at 37° C. for 14 days and then stained with 50% methanol-crystal violet solution. Only colonies with more than 50 cells were counted, and the surviving fraction was calculated and compared to the control.

H460 cells = test: Clonogenic survival after ionizing radiation, H460; assay type: cell-based, human; details: H460-NRF2 shRNA cells
Method: as §1

N.N.O=C([O-])C1(C(=O)[O-])CCC1.[Pt+2] [carboplatin]
ratio of lung weights, siRNA vs siRNA+carboplatin treated tumors (A549-C8-luc cells): 1.73 | ratio of differences in change in tumor volume, siRNA+carboplatin vs siRNA (A549 cells [1]; experiment 1): 0.45 | ratio of tumor weights, siRNA vs siRNA+carboplatin treated tumors (A549 cells [1]; experiment 1, carboplatin 40 mg/kg i.p. twice weekly): 2.13 | ratio of differences in change in tumor volume, siRNA+carboplatin vs siRNA+radiation (A549 cells [1]; experiment 1, not significant): 0.77 | ratio of tumor weights, siRNA+carboplatin vs siRNA treated tumors (A549 cells [1]; second experiment): 0.55

CC(=O)N[C@@H](CS)C(=O)O [NAC, N-acetyl cysteine]
reduction of ROS production / mean fluorescent intensity (ROS; A549-NRF2shRNA cells): 85% | reduction of ROS production / mean fluorescent intensity (ROS; H460-NRF2shRNA cells): 75% | cell survival after radiation with NAC pretreatment (A549 cells [2]): significantly increased cell survival | cell survival after radiation with NAC pretreatment (H460 cells): significantly increased cell survival
